Assay results from the NIST ThermoML archive (doi:10.1021/je700646e).

Assay: xn = mol fraction of the nth substance listed
Settings: Fluid (supercritical or subcritical phases), Taylor dispersion method, x1 = 0

| SMILES | binary diffusion coefficient (313.16 K, 15000 kPa) [m2/s] | binary diffusion coefficient (313.16 K, 20000 kPa) [m2/s] | binary diffusion coefficient (313.16 K, 25000 kPa) [m2/s] | binary diffusion coefficient (313.16 K, 30000 kPa) [m2/s] | binary diffusion coefficient (313.16 K, 35000 kPa) [m2/s] | binary diffusion coefficient (323.16 K, 15000 kPa) [m2/s] | binary diffusion coefficient (323.16 K, 20000 kPa) [m2/s] | binary diffusion coefficient (323.16 K, 25000 kPa) [m2/s] | binary diffusion coefficient (323.16 K, 30000 kPa) [m2/s] | binary diffusion coefficient (323.16 K, 35000 kPa) [m2/s] | binary diffusion coefficient (333.16 K, 15000 kPa) [m2/s] | binary diffusion coefficient (333.16 K, 20000 kPa) [m2/s] | binary diffusion coefficient (333.16 K, 25000 kPa) [m2/s] | binary diffusion coefficient (333.16 K, 30000 kPa) [m2/s] | binary diffusion coefficient (333.16 K, 35000 kPa) [m2/s] |
| --- | --- | --- | --- | --- | --- | --- | --- | --- | --- | --- | --- | --- | --- | --- | --- |
| C=CCc1ccc(O)c(OC)c1 [2-hydroxy-5-allylanisole] + O=C=O | 9.29e-09 | 7.69e-09 | 6.96e-09 | 6.37e-09 | 6.1e-09 | 1.14e-08 | 9.08e-09 | 8.03e-09 | 7.39e-09 | 6.91e-09 | 1.21e-08 | 1.04e-08 | 9.19e-09 | 8.32e-09 | 7.9e-09 |
| CC(=O)CCc1ccccc1 [4-phenyl-2-butanone] + O=C=O | 8.97e-09 | 8.05e-09 | 7.39e-09 | 6.95e-09 | 6.58e-09 | 1.06e-08 | 9.25e-09 | 8.65e-09 | 7.83e-09 | 7.5e-09 | 1.15e-08 | 1.08e-08 | 9.59e-09 | 8.92e-09 | 8.29e-09 |
| CCOC(=O)c1ccccc1 [ethyl benzoate] + O=C=O | 1.05e-08 | 8.06e-09 | 7.53e-09 | 6.82e-09 | 6.7e-09 | 1.3e-08 | 1.01e-08 | 8.65e-09 | 7.82e-09 | 7.25e-09 | 1.49e-08 | 1.19e-08 | 9.82e-09 | 8.78e-09 | 8.36e-09 |
